Test system: LPS induced NFkB activity in THP1-Blue™ cells
Test: Suppression of LPS induced NFkB in human monocyte THP-1 reporter cells (THP1-BLUE NFkB, SEAP)
Format: cell-based
Settings: IKK 16 at 2 μM; LPS 100 ng/mL 18 hours

Compound: O=C(c1ccc(Nc2nccc(-c3cc4ccccc4s3)n2)cc1)N1CCC(N2CCCC2)CC1 [IKK 16]
- Suppression of LPS induced NFkB activity in THP1-Blue ™ cells (control for suppression): −80%
